The source of these data is EP3057949B1, “SECONDARY ALCOHOL QUINOLINYL MODULATORS OF ROR GAMMA T” (Janssen Pharmaceutica NV, priority 2013, dated 2015).

The target in assay [1] is T1, human RORγt ligand binding domain (RORγt LBD) (Homo sapiens, UniProt P51449).
T1 construct: His-tag (N); TurboTEV protease cleavage site (ENLYFQG) (N); made in house; host or cells: E. coli (pHIS1, modified pET vector)
T1 sequence (P51449 258-518): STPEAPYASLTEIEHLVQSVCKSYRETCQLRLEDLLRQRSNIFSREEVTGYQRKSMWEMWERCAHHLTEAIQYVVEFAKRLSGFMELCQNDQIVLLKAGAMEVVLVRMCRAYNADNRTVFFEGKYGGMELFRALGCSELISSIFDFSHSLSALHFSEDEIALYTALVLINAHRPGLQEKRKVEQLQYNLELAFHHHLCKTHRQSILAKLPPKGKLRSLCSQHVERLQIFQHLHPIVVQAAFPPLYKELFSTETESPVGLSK
Nature of the assay: ThermoFluor® Assay (RORγt thermal shift binding). The conditions noted are these: 0.065 mg/mL RORγt, 60 µM 1,8-ANS, pH 7.0; estimated from concentration response curves. The protocol: This approach is applicable to a wide variety of systems, and rigorous in theoretical interpretation through quantitation of equilibrium binding constants (KD).
The shift in the melting point described as a ΔTm is proportional to the concentration and affinity of the ligand. The compound potency may be compared as a rank order of either ATm values at a single compound concentration or in terms of KD values, estimated from concentration response curves.
ThermoFluor® experiments were carried out using instruments owned by Janssen Research and Discovery, L.L.C. through its acquisition of 3-Dimensional Pharmaceuticals, Inc. 1,8-ANS (Invitrogen) was used as a fluorescent dye. Protein and compound solutions are dispensed into black 384-well polypropylene PCR microplates (Abgene) and overlayed with silicone oil (1 µL, Fluka, type DC 200) to prevent evaporation.
Bar-coded assay plates are robotically loaded onto a thermostatically controlled PCR-type thermal block and then heated at a typical ramp-rate of 1 °C/minute for all experiments. Fluorescence was measured by continuous illumination with UV light (Hamamatsu LC6) supplied via fiber optic and filtered through a band-pass filter (380-400 nm; >6 OD cutoff). Fluorescence emission of the entire 384-well plate was detected by measuring light intensity using a CCD camera (Sensys, Roper Scientific) filtered to detect 500 ± 25 nm, resulting in simultaneous and independent readings of all 384 wells. Images were collected at each temperature, and the sum of the pixel intensity in a given area of the assay plate was recorded versus temperature. Reference wells contained RORyt without compounds, and the assay conditions were as follows: • 0.065 mg/mL RORγt • 60 µM 1,8-ANS • 100 mM Hepes, pH 7.0 • 10 mM NaCl • 2.5 mM GSH • 0.002% Tween-20
Project compounds were arranged in a pre-dosed mother plate (Greiner Bio-one) wherein compounds are serially diluted in 100% DMSO by 1:2 from a high concentration of 10 mM over 12 columns within a series (column 12 is a reference well containing DMSO, no compound). The compounds were robotically dispensed directly into assay plates (1x = 46 nL) using a Hummingbird capillary liquid handling instrument (Digilab). Following compound dispense, protein and dye in buffer was added to achieve the final assay volume of 3 µL, followed by 1 µL of silicone oil.

The target of the next assay is T2, human RORγt LBD (Homo sapiens, UniProt P51449).
T2 construct: expressed in transfected cells; host or cells: HEK293T
T2 sequence (P51449 258-518): T1 sequence (P51449 258-518)
As to the kind of experiment: RORγt (LBD) Reporter Assay (GAL4 luciferase, HEK293T cells). It is filed as cell-based. The note with it: for IC50: compounds for 24 hours. How it is done: (§1) Compounds were assessed for RORgt functional modulation using either the RORgt ligand binding domain (LBD) reporter assay, or the RORgt full-length (FL) reporter assay.
A reporter assay was used to test functional activity of RORγt modulatory compounds on transcriptional activation driven by the RORγt LBD. Cells used in the assay were co-transfected with two constructs. The first construct, pBIND-RORγt LBD, contained the wild type human RORγt LBD fused to the DNA binding domain of the GAL4 protein. The second construct, pGL4.31 (Promega Cat no. C935A), contained multiple GAL4 responsive DNA elements upstream of firefly luciferase. […] The mutant construct was called pBIND-RORγt-AF2.
The pBIND vector contains the GAL4 DNA Binding Domain (GAL4 DBD) and the renilla luciferase gene under control of the SV40 promoter. Renilla luciferase expression serves as a control for transfection efficiency and cell viability.
The reporter assay was performed by transiently transfecting HEK293T cells with 5 µg of pBIND-RORγt LBD or pBIND-RORγt LBD-AF2 and 5 µg pGL4.31 (Promega Cat no. C935A) using Fugene 6 (Invitrogen Cat no. E2691) at a 1:6 ratio of DNA: Fugene 6 in a T-75 flask in which cells were at least 80% confluent. Twenty four hours after bulk transfection, cells were plated into 96-well plates at 50,000 cells/well in phenol-red free DMEM containing 5% Lipid Reduced FCS and Pen/Strep. Six hours after plating, cells were treated with compounds for 24 hours. Media was removed and cells were lysed with 50 µL 1x Glo Lysis Buffer (Promega). Dual Glo Luciferase Reagent (50 µL/well) was then added and firefly luciferase luminescence was read on an Envision after a ten minute incubation. Finally, Stop and Glo reagent (50 µL/well) was added and renilla luciferase luminescence was read on an Envision after a ten minute incubation. To calculate the effect of compounds on RORγt activity, the ratio of firefly to renilla luciferase was determined and plotted against compound concentration. Agonist compounds increase RORγt-driven luciferase expression, and antagonist or inverse agonist compounds decrease luciferase expression.
(In general: In a reporter assay the amount or activity of a reporter protein is the signal.)

The test system of assay [2] is IL-17 production by CD4 T cells. As to the kind of experiment: Human Th17 Assay (IL-17 production by CD4 T cells). The conditions noted are these: IL-17 in supernatant after 3 days, Th17 differentiation conditions. It is filed as cell-based. An excerpt: The human Thl7 assay tests the effect of RORyt modulatory compounds on IL-17 production by CD4 T cells under conditions which favor Th17 differentiation.
Total CD4^+ T cells were isolated from the peripheral blood mononuclear cells (PBMC) of healthy donors using a CD4^+ T cell isolation kit II, following the manufacturer's instructions (Miltenyi Biotec). Cells were resuspended in a medium of RPMI-1640 supplemented with 10% fetal bovine serum, penicillin, streptomycin, […], and β-mercaptoethanol and were added to 96-well plates at 1.5x10^5 per 100 µL per well. 50 µL of compound at titrated concentrations in DMSO were added into each well at final DMSO concentration at 0.2%. Cells were incubated for 1 hour, then 50 µL of Th17 cell differentiation medium was added to each well. The final concentrations of antibodies and cytokines (R&D Systems) in differentiation medium were: 3x10^6/mL anti-CD3/CD28 beads (prepared using human T cell activation/expansion kit, Miltenyi Biotec), 10 µg/mL anti-IL4, 10 µg/mL anti-IFNγ, 10 ng/mL IL1β, 10 ng/mL IL23, 50 ng/mL IL6, 3 ng/mL TGFβ and 20 U/mL IL2. Cells were cultured at 37 °C and 5% CO2 for 3 days. Supernatants were collected and the accumulated IL-17 in culture was measured by using MULTI-SPOT® Cytokine Plate following manufacture's instruction (Meso Scale Discovery). The plate was read using Sector Imager 6000, and IL-17 concentration was extrapolated from the standard curve. The IC50s were determined by GraphPad.

In a further assay the target is T3, full-length human RORγt (Homo sapiens, UniProt P51449).
T3 construct: expressed in transfected cells; host or cells: HEK293T
T3 sequence (P51449 1-497 isoform P51449-2): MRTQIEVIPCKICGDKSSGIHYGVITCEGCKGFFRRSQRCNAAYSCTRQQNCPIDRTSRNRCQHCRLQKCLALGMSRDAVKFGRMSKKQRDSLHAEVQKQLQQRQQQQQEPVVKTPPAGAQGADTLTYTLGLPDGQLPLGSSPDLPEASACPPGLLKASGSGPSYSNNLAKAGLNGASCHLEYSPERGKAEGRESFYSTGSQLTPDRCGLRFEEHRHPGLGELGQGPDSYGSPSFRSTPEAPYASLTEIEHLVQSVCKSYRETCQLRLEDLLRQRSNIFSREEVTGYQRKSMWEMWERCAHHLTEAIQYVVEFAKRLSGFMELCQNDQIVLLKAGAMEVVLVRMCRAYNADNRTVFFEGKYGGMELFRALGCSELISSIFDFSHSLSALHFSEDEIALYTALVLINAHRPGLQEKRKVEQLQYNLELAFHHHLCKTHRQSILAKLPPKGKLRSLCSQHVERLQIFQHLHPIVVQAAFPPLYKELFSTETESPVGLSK
As to the kind of experiment: RORγt (full-length human) Reporter Assay (GAL4 luciferase, HEK293T cells). Format: cell-based. The note with it: for IC50: overnight (16 to 20 hours) incubation, read-out: RORγt (FL) Reporter Assay, IC50; for inhibition at 0.67 µM: 0.67 µM compound concentration (footnote *), read-out: RORγt (FL) Reporter Assay, % inhibition (values marked *). The protocol: as §1
A reporter assay was used to test functional activity of RORγt modulatory compounds on transcriptional activation driven by full-length human RORγt. Cells used in this assay were transiently co-transfected with three different plasmids, one expressing the GAL4-DNA binding domain (DBD)-RORγt fusion protein under control of a CMV promoter (NH2-Gal4-DBD:RORC-COOH in pCMV-BD, Stratagene #211342), and two reporter plasmids - the firefly luciferase reporter under control of a GAL4 promoter (pFR-Luc 2x GAL4) and Renilla luciferase reporter under control of CMV promoter (pRL-CMV, Promega #E2261). The full-length coding sequence was used for human RORγt, i.e., nucleotides 142-1635 of human RORγt, transcript variant 2, NCBI Accession: NM_001001523.1 (SEQ ID NO:1). HEK293T cells were plated at 35000 per well in 96-well plate in medium of MEM with 8.6% FBS. After 18-22 hours incubation, the transfection was carried out by using a PEI solution with 170.5 ng total DNA/well (50 ng pCMV-BD-ROR plus 20 ng of pFR-Luc reporter and 0.5 ng of pRL-CMV reporter plus 100 ng Carrier DNA (Clontech # 630440) for each well). 4-6 hours after transfection, cells were treated with compounds for overnight in the medium with final concentration of FBS 1.1% and DMSO 0.1%. After overnight (16 to 20 hours) incubation, media were removed and cells were lysed with 20 µL 1x Passive Lysis Buffer (Promega) for 10-15 minutes. Luminescence was measured using a BMG LUMIstar OPTIMA plate reader, after addition of 75 µL/well firefly luciferase buffer, followed by 75 µL/well Renilla luciferase buffer. To calculate the effect of compounds on RORγt activity, firefly values were normalized against values of DMSO only and values of reference compound at saturating concentration, then further normalized against Renilla signals. IC50s were generated by plotting final Renilla normalized data against compound concentration and percent inhibition was calculated against DMSO control.

In the case of `COc1nc2ccc(C(O)c3ccc(C)nc3C)cc2c(Cl)c1Cc1ccc(C(F)(F)F)cc1` (single isomer, unassigned) [Example 14c, (4-Chloro-2-methoxy-3-(4-(trifluoromethyl)benzyl)quinolin-6-yl)(2,6-dimethylpyridin-3-yl)methanol], the Kd in assay [1] was 100 nM. The “RORγt (LBD) Reporter Assay, % inhibition @ 6 µM” value on human RORγt LBD (6 µM compound, 6 µM) came to 98%. Also, the IC50 against human RORγt LBD stood at 220 nM; in assay [2] it was 100 nM.
Consider `Cc1ncc(C(O)c2ccc3nc(N4CCC4)c(Cc4ccc(C(F)(F)F)cc4)c(Cl)c3c2)n1C` (single isomer, unassigned) [Example 22b, {2-Azetidin-1-yl-4-chloro-3-[4-(trifluoromethyl)benzyl]quinolin-6-yl}(1,2-dimethyl-1H-imidazol-5-yl)methanol], for which the Kd in assay [1] was 55 nM. The compound also registered an inhibition at 6 µM on human RORγt LBD (HEK-293T, 6 µM compound) of 95%. Besides, the IC50 against human RORγt LBD was 240 nM; in assay [2], 9.4 nM.
`COc1nc2ccc(C(O)c3cnnn3C)cc2c(Cl)c1Cc1ccc(-n2cccn2)cc1` (single isomer, unassigned) [Example 5c, (3-(4-(1H-Pyrazol-1-yl)benzyl)-4-chloro-2-methoxyquinolin-6-yl)(1-methyl-1H-1,2,3-triazol-5-yl)methanol]: the IC50 in assay [2] is 610 nM.
Same read-out and setting: the value for `COc1nc2ccc(C(O)c3cnnn3C)cc2c(Cl)c1Cc1ccc(-n2cccn2)cc1` (single isomer, unassigned) [Example 5b, (3-(4-(1H-Pyrazol-1-yl)benzyl)-4-chloro-2-methoxyquinolin-6-yl)(1-methyl-1H-1,2,3-triazol-5-yl)methanol] was 1500 nM.
As for `COc1nc2ccc(C(O)c3c(C)noc3C)cc2c(Cl)c1Cc1ccc(C(F)(F)F)cc1` (single isomer, unassigned) [Example 20b, (4-Chloro-2-methoxy-3-(4-(trifluoromethyl)benzyl)quinolin-6-yl)(3,5-dimethylisoxazol-4-yl)methanol], in assay [1], the Kd was 290 nM. The inhibition at 2 µM at full-length human RORγt (HEK-293T, 2 µM compound, read-out: RORγt (FL) Reporter Assay, % inhibition @ 2 µM) is 84%. Also, at full-length human RORγt, the IC50 came to 300 nM.
As to `COc1nc2ccc(C(O)c3c(C)nn(C)c3C)cc2c(Cl)c1Cc1ccc(C(F)(F)F)cc1` (stereo not shown) [Example 34a, (4-Chloro-2-methoxy-3-(4-(trifluoromethyl)benzyl)quinolin-6-yl)(1,3,5-trimethyl-1H-pyrazol-4-yl)methanol], in assay [1], the Kd is 11 nM. Further, on full-length human RORγt (HEK-293T), the inhibition at 0.67 µM was found to be 95%. For the same compound, the IC50 at full-length human RORγt turned out to be 20 nM.
On to `COc1nc2ccc(C(O)c3ccc(C#N)cc3)cc2c(Cl)c1Cc1ccc(C#N)cc1` (stereo not shown) [Example 9, 4-((4-Chloro-3-(4-cyanobenzyl)-2-methoxyquinolin-6-yl)(hydroxy)methyl)benzonitrile], for which the dissociation constant Kd in assay [1] was 680 nM. The inhibition at 0.67 µM on full-length human RORγt (HEK-293T) worked out at 42%. Moreover, the IC50 at full-length human RORγt turned out to be 150 nM.

A word on the Kd: it is the free concentration of one partner at which half of the binding sites on the other are occupied at equilibrium, for simple one-to-one binding. One may read the IC50 as the concentration that inhibits the measured activity by half. A word on the inhibition: it is the change of the read-out against control, counted positive when it falls.
